Values after ≈ are worked out from the molar mass of the structure shown. Values joined by “and” are separate entries in the source; they are usually repeats but may differ in a detail not shown here. Equal entries are not always repeated. Values belong to the molecule of their own block, whether it stands above or below them.
Key:
Assay in all cases: ≥ marks a high value that may be exact or a test limit, other limits are often not marked, values filed in µg/mL are converted to µM
Bacillus subtilis = system: Bacillus subtilis
Escherichia coli = system: Escherichia coli
Salmonella typhimurium = system: Salmonella typhimurium
Staphylococcus aureus = system: Staphylococcus aureus
[1] = system: Acinetobacter baumannii ATCC 19606
[2] = system: Klebsiella pneumoniae ATCC 13883
[3] = system: Pseudomonas aeruginosa PAO1
[4] = system: Salmonella enterica subsp. enterica serovar Typhimurium ATCC 14028
[5] = system: Staphylococcus aureus ATCC 25923
[6] = system: Escherichia coli ATCC 25922
[7] = system: Staphylococcus aureus USA 300
Bacillus cereus = system: Bacillus cereus
Acinetobacter baumannii = system: Acinetobacter baumannii
Klebsiella pneumoniae = system: Klebsiella pneumoniae
[8] = system: Enterococcus faecalis ATCC 29212
[9] = system: Salmonella enterica subsp. enterica serovar Pullorum C79-13
[10] = system: Salmonella enterica subsp. enterica serovar Typhimurium C77-31
[11] = system: Staphylococcus aureus ATCC 29213
[12] = system: Staphylococcus epidermidis ATCC 12228
Escherichia coli UB1005 = system: Escherichia coli UB1005
[13] = system: Pseudomonas aeruginosa ATCC 27853
[14] = system: Staphylococcus aureus ATCC 33591

Structure (SMILES): CC(C)C[C@H](NC(=O)[C@H](CCCCN)NC(=O)[C@H](Cc1ccccc1)NC(=O)[C@@H](NC(=O)[C@@H](NC(=O)CNC(=O)[C@H](CC(C)C)NC(=O)[C@@H](N)Cc1ccccc1)C(C)C)C(C)C)C(=O)N[C@@H](C)C(=O)N[C@H](C(=O)N[C@@H](CCCCN)C(=O)N[C@H](C(=O)N[C@@H](Cc1ccccc1)C(=O)N1CCC[C@H]1C(=O)N[C@@H](C)C(=O)N[C@H](C(=O)N[C@@H](Cc1ccccc1)C(=O)NCC(=O)N[C@@H](CCCCN)C(=O)N[C@H](C(=O)O)C(C)C)C(C)C)C(C)C)C(C)C [FLGVVFKLAVKVFPAVFGKV]
MIC (Bacillus cereus): ≥ 118 µM
MIC (Escherichia coli): > 118 µM
MIC (Staphylococcus aureus): > 118 µM

Structure (SMILES): CC(C)C[C@H](NC(=O)[C@H](CC(C)C)NC(=O)[C@H](CCCCN)NC(=O)CNC(=O)[C@H](CC(C)C)NC(=O)[C@H](CC(C)C)NC(=O)[C@H](CC(C)C)NC(=O)[C@H](CC(C)C)NC(=O)[C@H](CO)NC(=O)[C@H](CO)NC(=O)[C@H](CC(C)C)NC(=O)[C@H](CC(C)C)NC(=O)CN)C(N)=O [GLLSSLLLLGKLL]
MIC [6]: > 25 µM
MIC [2]: 25 µM (≈ 33.5 µg/mL)
MIC [3]: > 25 µM
MIC [7]: 3.1 µM (≈ 4.15 µg/mL)

Structure (SMILES): CC(C)C[C@H](NC(=O)[C@@H](N)Cc1ccccc1)C(=O)NCC(=O)N[C@@H](CCCCN)C(=O)N[C@H](C(=O)N[C@@H](Cc1ccccc1)C(=O)N[C@@H](CCCCN)C(=O)N[C@@H](CCCCN)C(=O)N[C@@H](C)C(=O)N[C@H](C(=O)N[C@@H](CCCCN)C(=O)N[C@H](C(=O)N[C@@H](Cc1ccccc1)C(=O)N1CCC[C@H]1C(=O)N[C@@H](C)C(=O)N[C@H](C(=O)N[C@@H](Cc1ccccc1)C(=O)NCC(=O)N[C@@H](CCCCN)C(=O)N[C@H](C(=O)O)C(C)C)C(C)C)C(C)C)C(C)C)C(C)C [FLGKVFKKAVKVFPAVFGKV]
MIC (Bacillus cereus): ≥ 116 µM
MIC (Escherichia coli): 14.5 µM (≈ 32 µg/mL)
MIC (Staphylococcus aureus): 116 µM (≈ 256 µg/mL)

Structure (SMILES): CC[C@H](C)[C@H](NC(=O)[C@H](CCCN=C(N)N)NC(=O)[C@H](CCC(N)=O)NC(=O)[C@@H](NC(=O)[C@@H](NC(=O)[C@H](CCC(N)=O)NC(=O)[C@H](CCC(N)=O)NC(=O)[C@H](Cc1ccccc1)NC(=O)CN)[C@@H](C)CC)C(C)C)C(=O)N[C@@H](CCCCN)C(=O)N[C@@H](CC(=O)O)C(=O)N[C@@H](Cc1ccccc1)C(=O)N[C@@H](CC(C)C)C(=O)N[C@@H](CCC(N)=O)C(=O)N[C@@H](CC(N)=O)C(=O)N[C@@H](CC(C)C)C(=O)N[C@H](C(N)=O)C(C)C [GFQQIVQRIKDFLQNLV]
MIC [7]: 12.5 µM (≈ 25.6 µg/mL)

Structure (SMILES): CSCC[C@H](NC(=O)[C@H](CCCN=C(N)N)NC(=O)[C@H](CCCN=C(N)N)NC(=O)[C@H](CC(N)=O)NC(=O)[C@H](CCC(N)=O)NC(=O)[C@@H](N)Cc1ccccc1)C(=O)N[C@@H](CCCCN)C(=O)N[C@@H](Cc1c[nH]c2ccccc12)C(=O)N[C@@H](CCCCN)C(=O)N[C@@H](CCCCN)C(N)=O [FQNRRMKWKK]
MIC [6]: > 256 µM
MIC [14]: ≥ 256 µM

Results, then the molecule that gave them:

MIC (Bacillus subtilis): 4 µM (≈ 7.16 µg/mL)
MIC (Escherichia coli): 8 µM (≈ 14.3 µg/mL)
MIC (Salmonella typhimurium): 4 µM (≈ 7.16 µg/mL)
MIC (Staphylococcus aureus): 8 µM (≈ 14.3 µg/mL)
Structure (SMILES): CC[C@H](C)[C@H](NC(=O)[C@H](CCCN=C(N)N)NC(=O)[C@@H](NC(=O)[C@@H](NC(=O)[C@@H](NC(=O)CN)C(C)C)C(C)C)C(C)C)C(=O)NCC(=O)N[C@@H](CCCN=C(N)N)C(=O)N[C@H](C(=O)N[C@H](C(=O)N[C@H](C(=O)N[C@@H](CCCN=C(N)N)C(=O)NCC(=O)N[C@H](C(=O)N[C@@H](CCCN=C(N)N)C(=O)N[C@@H](CCCN=C(N)N)C(N)=O)C(C)C)C(C)C)[C@@H](C)CC)C(C)C [GVVVRIGRVIVRGVRR]

MIC [1]: 6.2 µM (≈ 13 µg/mL)
MIC [2]: 2.6 µM (≈ 5.44 µg/mL)
MIC [3]: 2.5 µM and 5.2 µM
MIC [4]: 1.5 µM (≈ 3.14 µg/mL)
MIC [5]: 26.3 µM and 30 µM
Structure (SMILES): CC(C)C[C@H](NC(=O)[C@H](CCCN=C(N)N)NC(=O)[C@H](CCCN=C(N)N)NC(=O)[C@H](C)NC(=O)[C@H](Cc1c[nH]c2ccccc12)NC(=O)CNC(=O)[C@H](CCCN=C(N)N)NC(=O)[C@@H](N)CCCN=C(N)N)C(=O)N[C@@H](C)C(=O)N[C@@H](Cc1ccccc1)C(=O)N[C@@H](C)C(=O)N[C@@H](Cc1ccccc1)C(=O)N[C@@H](C)C(=O)N[C@@H](Cc1ccccc1)C(=O)NCC(=O)N[C@@H](CCCN=C(N)N)C(=O)N[C@@H](CCCN=C(N)N)C(N)=O [RRGWARRLAFAFAFGRR]

MIC [6]: > 25 µM
MIC [2]: 25 µM (≈ 33.5 µg/mL)
MIC [3]: > 25 µM
MIC [7]: 1.6 µM (≈ 2.14 µg/mL)
Structure (SMILES): CC(C)C[C@H](NC(=O)[C@H](CC(C)C)NC(=O)[C@H](CCCCN)NC(=O)[C@H](CC(C)C)NC(=O)CNC(=O)[C@H](CC(C)C)NC(=O)[C@H](CO)NC(=O)[C@H](CC(C)C)NC(=O)[C@H](CC(C)C)NC(=O)[C@H](CO)NC(=O)CNC(=O)[C@H](CC(C)C)NC(=O)[C@@H](N)CC(C)C)C(N)=O [LLGSLLSLGLKLL]

MIC (Acinetobacter baumannii): 3.2 µM (≈ 6.09 µg/mL)
MIC [6]: 15.1 µM and 26.6 µM
MIC [2]: 30 µM (≈ 57.1 µg/mL)
MIC (Klebsiella pneumoniae): 1.3 µM (≈ 2.47 µg/mL)
MIC [5]: > 30 µM
Structure (SMILES): CC(C)C[C@H](NC(=O)[C@H](CCCN=C(N)N)NC(=O)[C@H](CCCN=C(N)N)NC(=O)[C@H](C)NC(=O)[C@H](Cc1c[nH]c2ccccc12)NC(=O)CNC(=O)[C@H](CCCN=C(N)N)NC(=O)[C@@H](N)CCCN=C(N)N)C(=O)N[C@H](C(=O)N[C@@H](Cc1ccccc1)C(=O)N[C@@H](C)C(=O)N[C@@H](Cc1ccccc1)C(=O)NCC(=O)N[C@@H](CCCN=C(N)N)C(=O)N[C@@H](CCCN=C(N)N)C(N)=O)C(C)C [RRGWARRLVFAFGRR]

MIC [8]: 4 µM (≈ 12.1 µg/mL)
MIC [6]: 4 µM (≈ 12.1 µg/mL)
MIC [9]: 16 µM (≈ 48.3 µg/mL)
MIC [10]: ≥ 128 µM
MIC [11]: 32 µM (≈ 96.6 µg/mL)
MIC [12]: 32 µM (≈ 96.6 µg/mL)
Structure (SMILES): CC(C)C[C@H](NC(=O)[C@@H](NC(=O)[C@@H](NC(=O)[C@@H](N)CC(C)C)C(C)C)[C@@H](C)O)C(=O)N[C@H](C(=O)N[C@@H](Cc1ccccc1)C(=O)N[C@H](C(=O)NCC(=O)NCC(=O)NCC(=O)N[C@@H](Cc1c[nH]c2ccccc12)C(=O)N[C@@H](CCCCN)C(=O)N[C@@H](Cc1c[nH]c2ccccc12)C(=O)N[C@@H](CCCCN)C(=O)N[C@@H](Cc1c[nH]c2ccccc12)C(=O)N[C@@H](CCCCN)C(=O)N[C@@H](CC(N)=O)C(=O)NCC(=O)N[C@@H](CCCCN)C(=O)N[C@@H](Cc1c[nH]c2ccccc12)C(=O)N[C@@H](CCCCN)C(=O)N[C@@H](Cc1c[nH]c2ccccc12)C(=O)N[C@@H](CCCCN)C(=O)N[C@@H](Cc1c[nH]c2ccccc12)C(=O)O)C(C)C)C(C)C [LVTLVFVGGGWKWKWKNGKWKWKW]

MIC [8]: 16 µM (≈ 32.5 µg/mL)
MIC (Escherichia coli UB1005): 16 µM (≈ 32.5 µg/mL)
MIC [13]: 32 µM (≈ 65 µg/mL)
MIC [9]: 16 µM (≈ 32.5 µg/mL)
MIC [4]: 32 µM (≈ 65 µg/mL)
MIC [10]: ≥ 32 µM
MIC [12]: 16 µM (≈ 32.5 µg/mL)
Structure (SMILES): CC[C@H](C)[C@H](NC(=O)[C@H](CCCCN)NC(=O)[C@H](CCCN=C(N)N)NC(=O)[C@H](CC(C)C)NC(=O)[C@H](Cc1ccccc1)NC(=O)[C@H](CCCN=C(N)N)NC(=O)CNC(=O)[C@H](Cc1ccccc1)NC(=O)[C@@H](N)CCCN=C(N)N)C(=O)N[C@@H](CCCN=C(N)N)C(=O)N[C@@H](CCCN=C(N)N)C(=O)N[C@@H](Cc1ccccc1)C(=O)N[C@@H](CCCN=C(N)N)C(=O)N1CCC[C@H]1C(=O)N[C@@H](CCCCN)C(N)=O [RFGRFLRKIRRFRPK]

From DBAASP
